The values that follow come from patent publication US9714245B2, “Carboline compounds usable in the treatment of neurodegenerative diseases” (ALZPROTECT, priority 2013, dated 2017).

In data set [1] the test system is secreted Aβ1-40. Put plainly: Aβ1-40 secretion by APP-transfected neuroblastoma cells (ELISA). It is filed as cell-based. The conditions noted are these: Homo sapiens, Neuroblastoma cell; SKNSH-SYSY APPWT cells; concentration decreasing secreted Aβ1-40 to 50% of basal amount. How it is done: (§1) Cell Cultures and Transfections to Test Activity on Aβ1-40 and Aβ1-42 Secretion
(§2) Human neuroblastoma cell line SKNSH-SYSY (ATCC® Catalog No. CRL-2266™), HEK (ATCC® CRL-1573™) and COS-1 (ATCC® CRL-1650™) cells were maintained in Dulbecco's modified Eagle medium (DMEM, GIBCO BRL) supplemented with 10% fetal calf serum, 2 mM L-glutamine, 1 mM non-essential amino acids, 50 units/ml penicillin/streptomycin (Invitrogen, France) in a 5% CO2 humidified incubator at 37° C. APP695 cDNA was subcloned into eukaryotic expression vector pcDNA3 (Invitrogen), allowing for a G418 (Invitrogen) selection of clones. This APP cDNA coding for the 695 amino acid long isoform was transfected into SKNSH-SYSY cells using the ethyleneimine polymer ExGen 500 (Euromedex) according to the manufacturer's instructions. The cells expressing APP (SKNSH-SYSY APP^WT) were selected by the addition of 200 μg/ml G418 in the cell medium. To quantify AR which released in the cell culture medium, the collected medium was spun at 200×g to eliminate the cell debris. The concentrations of secreted Aâ1-40 and Aβ1-42 were determined using the Human Aβ (1-40) Assay Kit (IBL) or the INNOTEST™ beta-Amyloid (1-42) ELISA Kit (Innogenetics), according to manufacturer's instructions. The results were expressed as IC50, i.e. the concentration able to decrease to 50% the basal amount of secreted Aβ peptide 1-40 and 1-42.
For orientation: In an ELISA, binding on a coated surface is turned into a signal by an enzyme label.

In data set [2] the test system is secreted Aβ1-42. Put plainly: Aβ1-42 secretion by APP-transfected neuroblastoma cells (ELISA). It is filed as cell-based. The conditions noted are these: Homo sapiens, Neuroblastoma cell; SKNSH-SYSY APPWT cells; concentration decreasing secreted Aβ1-42 to 50% of basal amount. As for the experimental part: as §1, §2
For data set [3], the system named is AICD. Put plainly: Quantification of AICD by Western blot in SY5Y-APPWT cells. It is filed as cell-based, Human. To be noted: compared to a control with a value of 100. How it is done:
(§3) Quantifications of APP-CTFs and AICD
(§4) After treatment, SY5Y-APP^WT cells were scrapped and lysed in 1× Lysis Buffer (250 mM NaCl, 50 mM Tris, pH 8.8, 5 mM EDTA, 2.5% Triton X-100, 1% Deoxycholate, 0.1% SDS). For the Western blotting, an equal amount of total proteins (20 μg/lane) was loaded on a 16.5% Tris-Tricine or 8-16% Tris-Glycine polyacrylamide gel.
(§5) SDS-polyacrylamide gel electrophoresis (PAGE) was performed using the Criterion™ Tris-Tricine-precast or Bis-Tris-precast criterion gels (Bio-Rad Bioresearch division). Proteins were transferred to a […] nitrocellulose membrane (Hybond, Amersham Biosciences) at 2.5 mA/cm2 per gel using the Criterion™ Blotter system (Amersham Biosciences), according to the manufacturer's instructions. Proteins were reversibly stained with Ponceau Red in order to check the quality of the transfer of protein. The membranes were blocked in 25 mM Tris-HCl pH 8.0, 150 mM NaCl, 0.1% Tween-20 (v/v) and 5% (w/v) of skimmed milk for 30 min. Membranes were incubated overnight at 4° C. with appropriate dilution of the primary antibodies, and were incubated for 1 h at room temperature with secondary antibody. […] Quantifications were calculated with Image J software (NIH) and the data were collected using Excel Software (Microsoft). The loading variations between Western blot lanes were normalized according to the tubulin signal. Quantification of CTFα and AICD were compared to control conditions (considered as 100 in arbitrary units) and are presented for two concentrations of the drug: 1 and 10 μM.

Data set [4] has as its system CTFα. As to the kind of experiment: Quantification of APP-CTFα by Western blot in SY5Y-APPWT cells. It is filed as cell-based, Human. The conditions noted are these: compared to a control with a value of 100. As for the experimental part:
as §3, §4, §5
Background: Immunoblotting shows a protein as a band on a membrane.

Data set [5] in a line: Cytotoxicity evaluation (MTS assay). It is filed as cell-based, Human. The conditions noted are these: human, SY5Y-APPWT neuroblastoma cells (expressing APP); SY5Y-APPWT cells, 24 h treatment, MTS. As for the experimental part:
Human neuroblastoma cell line SY5Y-APP^WT was used to assess the cytotoxic effects of each compound. SY5Y-APP^WT cells were seeded at 20000 cells/well onto 96-well plates and were cultured in Dulbecco's modified Eagle medium (DMEM, Invitrogen) supplemented with 10% fetal calf serum (PAA), 2 mM L-glutamine (Invitrogen), 1 mM non-essential amino acids (Invitrogen), 50 units/ml penicillin/streptomycin (Invitrogen), and 200 μg G418=geneticin (Invitrogen) (selection for cells expressing APP) in a 5% CO2 humidified incubator at 37° C. After 24 h, the cells were washed and incubated with the compound at 0.1; 0.3; 1; 3; 10; 30 and 100 μM or with DMSO as control diluted in the same culture medium at 37° C. in 5% CO2. After 24 h of treatment, cytotoxicity was determined by using colorimetric MTS assay (CellTiter 96® Aqueous One Solution Cell Proliferation Assay-MTS Promega) according to the protocol of the manufacturer. Absorbance was read at 490 nm and results were expressed as % from control condition considered as 100%.
(Tetrazolium assays rely on reduction of a dye to a coloured formazan, in cell work by metabolically active cells.)

Data set [6] addresses T1, HIS-tagged valosin-containing protein/p97 (VCP/p97) (Homo sapiens, UniProt P55072).
T1 construct: purchased TebuBio
As to the kind of experiment: VCP interaction assay (competition with biotinylated probe 4.7). It is filed as binding. To be noted: compound 60 μM against biotinylated probe 4.7 20 μM. How it is done:
Physical interaction between HIS-tagged valosin-containing protein/p97 (VCP/p97) (TebuBio) and biotinylated probe 4.7 was investigated by Enzyme-Linked Assay (ELA) based on HIS-Select® High Sensitivity Nickel coated plates, used following manufacturer's recommendations (Sigma Aldrich). Other chemical compounds were tested in competition with the biotinylated probe 4.7 in this system. Briefly, nickel beads were incubated overnight at 4° C. with 2% casein blocking solution. After a three-time rinse with wash buffer (0.05% Tween20 in phosphate buffer saline), HIS-tagged VCP/p97 protein (5 μg/ml in PBS) was incubated with nickel beads for 90 min at 25° C. Then, the plate was washed three times. Chemical compounds (60 μM) were incubated 10 min at 25° C. before addition of biotinylated probe 4.7 (20 μM) 30 min at 25° C. After five washes, streptavidin-peroxidase (2 μg/ml) was added during 1 h at 25° C., followed by the peroxidase substrate addition 30 min at RT. Reaction was stopped with 0.5M H2SO4 solution and the optical density was read at 450 nm using a microplate reader (VICTOR X4 Wallac, 2030-0040, PerkinElmer). Competition efficiency was quantified by the loss of signal compared to the control condition.

T1 sequence (P55072 whole entry): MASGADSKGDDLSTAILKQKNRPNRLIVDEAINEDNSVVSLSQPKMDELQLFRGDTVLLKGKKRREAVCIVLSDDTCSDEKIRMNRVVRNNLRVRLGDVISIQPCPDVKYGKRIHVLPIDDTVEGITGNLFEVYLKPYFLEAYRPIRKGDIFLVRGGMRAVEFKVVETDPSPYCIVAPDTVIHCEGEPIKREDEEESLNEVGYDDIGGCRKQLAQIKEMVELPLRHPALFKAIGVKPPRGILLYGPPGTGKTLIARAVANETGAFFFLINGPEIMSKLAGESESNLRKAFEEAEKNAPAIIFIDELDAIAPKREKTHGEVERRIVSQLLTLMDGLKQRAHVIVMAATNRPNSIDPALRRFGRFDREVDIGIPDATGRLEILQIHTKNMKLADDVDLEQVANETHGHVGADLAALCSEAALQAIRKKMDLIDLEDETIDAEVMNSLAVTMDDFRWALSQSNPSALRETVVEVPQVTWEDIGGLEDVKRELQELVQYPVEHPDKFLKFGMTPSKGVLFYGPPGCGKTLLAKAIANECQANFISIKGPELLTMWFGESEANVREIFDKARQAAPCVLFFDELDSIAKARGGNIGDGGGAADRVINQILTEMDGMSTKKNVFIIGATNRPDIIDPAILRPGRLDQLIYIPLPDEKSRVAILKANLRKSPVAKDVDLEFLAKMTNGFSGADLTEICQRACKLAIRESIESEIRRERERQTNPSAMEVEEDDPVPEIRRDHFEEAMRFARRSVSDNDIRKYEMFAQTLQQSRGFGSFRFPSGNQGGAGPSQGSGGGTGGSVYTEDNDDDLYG

On to `CC(C)CN(CCCN1CCN(CCCN2CCc3c([nH]c4ccccc34)C2c2ccccc2)CC1)CC(C)C` (stereo not drawn) [Compound 3.2a, N,N-diisobutyl-3-{4-[3-(1-phenyl-1,3,4,9-tetrahydro-1H-beta-carbolin-2-yl)propyl]piperazin-1-yl}propylamine], for which the IC50 (commonly the concentration needed to halve the response being measured) in data set [1] is 2 µM; in data set [2], 5 µM.
`CC(C)CN(CCCN1CCN(CCCN2CCc3c([nH]c4ccc(Cl)cc34)C2)CC1)CC(C)C` [Compound 3.2b, N,N-diisobutyl-3-{4-[3-(6-chloro-1,3,4,9-tetrahydro-1H-beta-carbolin-2-yl)propyl]piperazin-1-yl}propylamine]: the IC50 in data set [2] was over 10 µM. For the same molecule, the “AICD (10 μM)” value in data set [3] is reported as 7417 arbitrary units. Besides, the “CTFα (10 μM)” value in data set [4] was determined as 716 arbitrary units. Moreover, the CC50 (commonly the concentration giving 50% cytotoxicity) at 24 h in data set [5] is over 100 µM.
On to `CN(C)CCCN1CCN(CCCN2CCc3c([nH]c4ccccc34)C2)CC1` [Compound 3.2d, N,N-dimethyl-3-(4-(3-(1,3,4,9-tetrahydro-1H-beta-carbolin-2-yl)propyl)piperazin-1-yl)propylamine], for which the IC50 in data set [1] and in data set [2] was over 10 µM throughout. In data set [3], the “AICD (10 μM)” value was determined as 41661 arbitrary units. Further, the “CTFα (10 μM)” value in data set [4] is on record as 1042 arbitrary units. In data set [5], this molecule showed a CC50 at 24 h of over 100 µM. Also, the “VCP (competition efficiency, loss of signal compared to the control)” value in data set [6] is reported as 70%.
Regarding `CC(C)CN(CCN1CCN(CCCN2CCc3c([nH]c4ccccc34)C2)CC1)CC(C)C` [Compound 3.2h, N,N-diisobutyl-2-{4-[3-(1,3,4,9-tetrahydro-1H-beta-carbolin-2-yl)propyl]piperazin-1-yl}ethylamine], the IC50 in data set [1] and in data set [2] was 3 µM throughout.
Consider `COc1ccc2[nH]c3c(c2c1)CN(CCCN1CCN(CCCN(CC(C)C)CC(C)C)CC1)CC3` [Compound 3.1b, N,N-diisobutyl-3-(4-(3-(8-methoxy-1,3,4,5-tetrahydro-1H-pyrido[4,3-b]indol-2-yl)propyl)piperazin-1-yl)propylamine], for which the “AICD (10 μM)” value in data set [3] is 16400 arbitrary units. The same molecule registered a 50% cytotoxic concentration (CC50) at 24 h in data set [5] of over 10 µM.
Consider `COc1ccc2[nH]c3c(c2c1)CN(CCCN1CCN(CCCN2CCCCC2)CC1)CC3` [Compound 3.1i, 3-(4-(3-(8-methoxy-1,3,4,5-tetrahydro-1H-pyrido[4,3-b]indol-2-yl)propyl)piperazin-1-yl)propylpiperidine], for which the IC50 was 10 µM in data set [1] and over 10 µM in data set [2]. In data set [5], this molecule displayed a CC50 at 24 h of over 100 µM.
Taken in the same sequence, the figures for `c1ccc2c3c([nH]c2c1)CN(CCCN1CCN(CCCN2CCCCC2)CC1)CC3` [Compound 3.2i, 1-[3-(piperidin-1-yl)propyl]-4-(3-{1H,2H,3H,4H,9H-pyrido[3,4-b]indol-2-yl}propyl)piperazine] were 5 µM, 5 µM and over 100 µM.
Consider `CN(C)CCCN1CCN(CCCN2CCc3c([nH]c4ccccc34)C2c2ccccc2)CC1` (stereo not drawn) [Compound 3.2e, N,N-dimethyl-3-(4-(3-(1-phenyl-1,3,4,9-tetrahydro-1H-beta-carbolin-2-yl)propyl)piperazin-1-yl)propylamine], for which the half-inhibitory concentration (IC50) was found to be 2.5 µM in data set [1] and 2 µM in data set [2]. Also, the “AICD (10 μM)” value in data set [3] worked out at 4765 arbitrary units. In addition, the “CTFα (10 μM)” value in data set [4] is listed as 234 arbitrary units. In data set [5], this molecule returned a CC50 at 24 h of 12 µM.
In the case of `CC(C)CN(CCCN1CCN(CCCN2CCc3[nH]c4ccccc4c3C2)CC1)CC(C)C` [Compound 3.1a, N,N-diisobutyl-3-[4-(3-(1,3,4,5-tetrahydro-1H-pyrido[4,3-b]indol-2-yl)propyl)piperazin-1-yl]propylamine], the IC50 was found to be 1.2 µM in data set [1] and 2.1 µM in data set [2]. The “AICD (10 μM)” value in data set [3] is 1081 arbitrary units.
Take `Fc1ccc2[nH]c3c(c2c1)CN(CCCN1CCN(CCCN(Cc2ccccc2)Cc2ccccc2)CC1)CC3` [Compound 3.1h, N,N-dibenzyl-3-[4-(3-(8-fluoro-1,3,4,5-tetrahydro-1H-pyrido[4,3-b]indol-2-yl)propyl)piperazin-1-yl]propylamine]: the IC50 in data set [1] and in data set [2] was 2.5 µM throughout. Further, the CC50 at 24 h in data set [5] was 4.8 µM.
Consider `c1ccc2c3c([nH]c2c1)CN(CCCN1CCN(CCN2CCCCC2)CC1)CC3` [Compound 3.2j, 1-[2-(piperidin-1-yl)ethyl]-4-(3-{1H,2H,3H,4H,9H-pyrido[3,4-b]indol-2-yl}propyl)piperazine], for which the IC50 worked out at 5 µM in data set [1] and 3 µM in data set [2]. Further, the CC50 at 24 h in data set [5] is over 100 µM.
For the molecule `COc1ccc2[nH]c3c(c2c1)CN(CCCN1CCN(CCN(CC(C)C)CC(C)C)CC1)CC3` [Compound 3.1g, N,N-diisobutyl-2-(4-(3-(8-methoxy-1,3,4,5-tetrahydro-1H-pyrido[4,3-b]indol-2-yl)propyl)piperazin-1-yl)ethylamine], the IC50 in data set [1] came to 2.5 µM; in data set [2] it was 3.5 µM.
For `Cc1ccc2[nH]c3c(c2c1)CN(CCCN1CCN(CCCN(CC(C)C)CC(C)C)CC1)CC3` [Compound 3.1c, N,N-diisobutyl-3-[4-(3-(8-methyl-1,3,4,5-tetrahydro-1H-pyrido[4,3-b]indol-2-yl)propyl)piperazin-1-yl]propylamine], the IC50 in data set [1] amounted to 1 µM; in data set [2], 10 µM. In data set [4], the “CTFα (10 μM)” value worked out at 355 arbitrary units. In addition, it took 10 µM to reach half-maximal cytotoxicity in data set [5] (CC50 at 24 h).
